The source of these data is article PMC10004634 (PLOS ONE, 2023).

Read-outs that look alike come from different tables or passages of the source.

Targets include CLK3 (Homo sapiens, UniProt P49761); SLK (Homo sapiens, UniProt Q9H2G2); SRMS (Homo sapiens, UniProt Q9H3Y6).
Test in all cases: biochemical
Common to all, as to parameters: KINOMEscan scanMAX competition binding, DNA-tagged kinases, qPCR read-out, percent control at 300 nM
(Quantitative PCR measures a nucleic acid by following its amplification.)

The target of a further assay is T1, LATS2 (Homo sapiens, UniProt Q9NRM7).
T1 sequence (Q9NRM7 1-1088): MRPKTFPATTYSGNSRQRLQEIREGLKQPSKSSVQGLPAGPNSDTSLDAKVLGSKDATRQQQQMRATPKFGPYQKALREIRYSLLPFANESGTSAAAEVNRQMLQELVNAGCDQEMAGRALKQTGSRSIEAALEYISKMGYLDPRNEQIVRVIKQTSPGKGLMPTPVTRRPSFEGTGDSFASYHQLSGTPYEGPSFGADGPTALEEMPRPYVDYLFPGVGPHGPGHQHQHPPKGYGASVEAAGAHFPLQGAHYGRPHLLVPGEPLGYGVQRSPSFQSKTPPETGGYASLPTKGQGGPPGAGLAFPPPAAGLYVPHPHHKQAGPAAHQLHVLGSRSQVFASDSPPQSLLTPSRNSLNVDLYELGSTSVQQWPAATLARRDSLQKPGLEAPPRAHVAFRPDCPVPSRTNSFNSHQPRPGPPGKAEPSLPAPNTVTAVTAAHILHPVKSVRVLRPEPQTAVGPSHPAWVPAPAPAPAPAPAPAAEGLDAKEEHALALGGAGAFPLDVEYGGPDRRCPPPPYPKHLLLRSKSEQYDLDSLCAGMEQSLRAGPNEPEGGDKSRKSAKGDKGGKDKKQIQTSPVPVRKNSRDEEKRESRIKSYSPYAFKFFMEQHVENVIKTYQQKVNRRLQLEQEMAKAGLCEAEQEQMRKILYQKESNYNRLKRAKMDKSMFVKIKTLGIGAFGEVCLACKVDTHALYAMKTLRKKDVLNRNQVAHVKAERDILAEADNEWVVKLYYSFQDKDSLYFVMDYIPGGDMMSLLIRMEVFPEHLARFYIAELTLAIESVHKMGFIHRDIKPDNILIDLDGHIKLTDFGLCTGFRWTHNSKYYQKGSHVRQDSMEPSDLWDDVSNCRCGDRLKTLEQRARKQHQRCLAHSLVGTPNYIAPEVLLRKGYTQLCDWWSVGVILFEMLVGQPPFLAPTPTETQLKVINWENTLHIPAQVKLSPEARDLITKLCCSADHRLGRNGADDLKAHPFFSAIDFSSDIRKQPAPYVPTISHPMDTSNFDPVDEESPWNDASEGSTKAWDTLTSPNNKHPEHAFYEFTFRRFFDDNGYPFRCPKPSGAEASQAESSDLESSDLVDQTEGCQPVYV

For the next assay, the target named is T2, MEK5 (Homo sapiens, UniProt Q13163).
T2 construct: gene MAP2K5
T2 sequence (Q13163 1-448): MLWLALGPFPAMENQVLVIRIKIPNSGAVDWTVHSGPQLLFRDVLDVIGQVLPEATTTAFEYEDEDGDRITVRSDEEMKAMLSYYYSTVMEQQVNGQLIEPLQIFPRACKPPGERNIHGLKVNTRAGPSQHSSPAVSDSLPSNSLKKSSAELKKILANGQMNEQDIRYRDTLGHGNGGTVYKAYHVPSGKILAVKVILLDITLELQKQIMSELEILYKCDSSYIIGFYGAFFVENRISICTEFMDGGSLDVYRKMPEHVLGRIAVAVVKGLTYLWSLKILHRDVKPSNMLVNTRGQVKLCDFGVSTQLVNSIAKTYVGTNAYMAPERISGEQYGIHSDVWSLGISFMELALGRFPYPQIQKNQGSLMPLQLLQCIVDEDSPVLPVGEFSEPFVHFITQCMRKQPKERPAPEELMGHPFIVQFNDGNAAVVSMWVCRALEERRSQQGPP

In the next assay the target is T3, MST3 (Homo sapiens, UniProt Q9Y6E0).
T3 construct: gene STK24

Setting [1] is: read-out: Percent control / Tirabrutinib.
Setting [2] is: read-out: Percent control / Acalabrutinib.
Where [3] appears, read: read-out: Percent control / Ibrutinib.
[4] abbreviates: read-out: Percent control / Zanubrutinib.

Chain of SLK (Q9H2G2 whole entry): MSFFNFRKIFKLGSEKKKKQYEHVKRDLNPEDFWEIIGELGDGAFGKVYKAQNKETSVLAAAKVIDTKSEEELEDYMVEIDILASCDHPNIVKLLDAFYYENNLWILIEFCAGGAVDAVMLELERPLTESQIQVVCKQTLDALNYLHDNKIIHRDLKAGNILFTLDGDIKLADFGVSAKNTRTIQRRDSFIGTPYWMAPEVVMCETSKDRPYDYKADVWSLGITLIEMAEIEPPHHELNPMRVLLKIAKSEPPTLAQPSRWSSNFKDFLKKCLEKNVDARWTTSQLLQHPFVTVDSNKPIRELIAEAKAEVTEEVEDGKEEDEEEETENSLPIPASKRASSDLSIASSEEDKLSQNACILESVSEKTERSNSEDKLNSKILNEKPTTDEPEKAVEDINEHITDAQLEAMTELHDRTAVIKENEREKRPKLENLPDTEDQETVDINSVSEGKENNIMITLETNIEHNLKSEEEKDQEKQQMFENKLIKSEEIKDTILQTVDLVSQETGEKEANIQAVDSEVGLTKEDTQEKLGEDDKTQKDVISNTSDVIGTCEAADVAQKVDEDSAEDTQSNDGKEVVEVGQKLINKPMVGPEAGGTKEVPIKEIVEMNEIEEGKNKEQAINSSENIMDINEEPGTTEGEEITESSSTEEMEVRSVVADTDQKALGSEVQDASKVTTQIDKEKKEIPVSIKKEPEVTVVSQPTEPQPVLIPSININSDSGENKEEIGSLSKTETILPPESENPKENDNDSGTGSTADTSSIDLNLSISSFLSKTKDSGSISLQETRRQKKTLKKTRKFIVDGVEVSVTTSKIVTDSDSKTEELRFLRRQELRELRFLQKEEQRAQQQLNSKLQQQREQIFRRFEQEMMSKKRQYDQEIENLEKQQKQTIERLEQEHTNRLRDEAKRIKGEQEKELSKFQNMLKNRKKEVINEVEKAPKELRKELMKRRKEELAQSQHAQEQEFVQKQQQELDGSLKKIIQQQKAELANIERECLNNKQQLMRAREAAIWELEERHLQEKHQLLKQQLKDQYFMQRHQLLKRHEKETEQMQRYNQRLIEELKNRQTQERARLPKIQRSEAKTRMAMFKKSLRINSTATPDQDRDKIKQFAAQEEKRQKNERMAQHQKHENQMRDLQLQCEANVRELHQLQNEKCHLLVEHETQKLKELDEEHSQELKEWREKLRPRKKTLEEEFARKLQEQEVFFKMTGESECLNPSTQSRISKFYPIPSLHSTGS
Chain of CLK3 (P49761 whole entry): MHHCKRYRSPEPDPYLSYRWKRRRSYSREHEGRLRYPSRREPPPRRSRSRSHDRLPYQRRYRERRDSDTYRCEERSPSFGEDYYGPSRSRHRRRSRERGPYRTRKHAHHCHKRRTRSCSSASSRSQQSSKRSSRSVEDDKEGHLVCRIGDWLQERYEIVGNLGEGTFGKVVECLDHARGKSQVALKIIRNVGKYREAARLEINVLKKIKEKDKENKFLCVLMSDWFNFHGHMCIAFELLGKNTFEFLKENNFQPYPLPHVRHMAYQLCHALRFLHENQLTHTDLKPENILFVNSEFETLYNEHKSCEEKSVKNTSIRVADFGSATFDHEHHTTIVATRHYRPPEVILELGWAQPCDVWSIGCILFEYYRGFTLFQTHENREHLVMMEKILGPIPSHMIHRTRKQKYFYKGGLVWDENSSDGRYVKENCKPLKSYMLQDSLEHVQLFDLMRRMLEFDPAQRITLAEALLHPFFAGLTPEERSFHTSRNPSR
T3 sequence (Q9Y6E0 whole entry): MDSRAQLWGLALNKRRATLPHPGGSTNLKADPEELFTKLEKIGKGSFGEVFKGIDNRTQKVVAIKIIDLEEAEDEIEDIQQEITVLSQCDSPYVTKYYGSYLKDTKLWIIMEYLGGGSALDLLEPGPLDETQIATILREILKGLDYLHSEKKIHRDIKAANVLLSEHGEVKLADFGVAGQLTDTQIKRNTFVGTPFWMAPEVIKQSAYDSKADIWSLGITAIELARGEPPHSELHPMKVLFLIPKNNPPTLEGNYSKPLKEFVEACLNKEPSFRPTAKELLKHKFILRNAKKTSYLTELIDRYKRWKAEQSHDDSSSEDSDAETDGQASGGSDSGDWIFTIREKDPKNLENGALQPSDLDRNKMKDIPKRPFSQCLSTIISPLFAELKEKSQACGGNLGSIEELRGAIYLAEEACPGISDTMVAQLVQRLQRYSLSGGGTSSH
Chain of SRMS (Q9H3Y6 whole entry): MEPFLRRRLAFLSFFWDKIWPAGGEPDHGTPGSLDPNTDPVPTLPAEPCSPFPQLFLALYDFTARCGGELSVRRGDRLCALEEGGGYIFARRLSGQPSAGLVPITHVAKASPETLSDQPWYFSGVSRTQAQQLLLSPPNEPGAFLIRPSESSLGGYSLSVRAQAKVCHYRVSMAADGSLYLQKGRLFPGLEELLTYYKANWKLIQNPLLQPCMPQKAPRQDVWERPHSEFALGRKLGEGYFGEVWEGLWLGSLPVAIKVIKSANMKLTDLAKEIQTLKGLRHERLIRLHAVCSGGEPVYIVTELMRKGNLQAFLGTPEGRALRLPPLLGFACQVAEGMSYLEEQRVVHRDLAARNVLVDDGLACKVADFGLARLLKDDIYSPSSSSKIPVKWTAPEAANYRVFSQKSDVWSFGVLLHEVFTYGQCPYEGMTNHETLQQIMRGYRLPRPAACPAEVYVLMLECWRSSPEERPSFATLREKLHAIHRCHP

On to `CC#CC(=O)N1CC[C@@H](n2c(=O)n(-c3ccc(Oc4ccccc4)cc3)c3c(N)ncnc32)C1` [Tirabrutinib], for which the remaining binding at 0.3 µM came out at 82% at CLK3 (setting [1]); 92% on LATS2 (setting [1]); 41% at MEK5 (setting [1]); 93% on SLK (setting [1]); 82% on SRMS (setting [1]).

`CC#CC(=O)N1CCC[C@H]1c1nc(-c2ccc(C(=O)Nc3ccccn3)cc2)c2c(N)nccn12` [Acalabrutinib]: the remaining binding at 0.3 µM turned out to be 94% on CLK3 (setting [2]); 90% at LATS2 (setting [2]); 71% at MEK5 (setting [2]); 94% at MST3 (setting [2]); 88% at SLK (setting [2]); 79% on SRMS (setting [2]).

Take `C=CC(=O)N1CCC[C@@H](n2nc(-c3ccc(Oc4ccccc4)cc3)c3c(N)ncnc32)C1` [Ibrutinib]: the remaining binding at 0.3 µM on MEK5 (setting [3]) was 0.6%; at MST3 (setting [3]), 90%; on SLK (setting [3]), 92%; on SRMS (setting [3]), 0.3%.

In the case of `C=CC(=O)N1CCC([C@@H]2CCNc3c(C(N)=O)c(-c4ccc(Oc5ccccc5)cc4)nn32)CC1` [Zanubrutinib], the remaining binding at 0.3 µM at CLK3 (setting [4]) was found to be 82%; at LATS2 (setting [4]) it was 82%; at MST3 (setting [4]), 91%; on SLK (setting [4]), 99%.
